Calls of active or inactive are those of the source. The calls are words filed in the database; no cut-off is given here.
Assays:
[1] = test system: RAW264.7; assay: Antiinflammatory activity in IFN-gamma/LPS-stimulated mouse RAW264.7 cells assessed as inhibition of NO production at 50 uM treated after 18.5 hrs of LPS addition measured after 19 hrs relative to control; format: functional, cell-based
[2] = test system: RAW264.7; assay: Antiinflammatory activity in IFN-gamma/LPS-stimulated mouse RAW264.7 cells assessed as NO production at 10 uM treated after 3 hrs of IFN-gamma stimulation and before 30 mins of LPS addition measured after 19 hrs relative to control
[3] = test system: RAW264.7; assay: Antiinflammatory activity in IFN-gamma/LPS-stimulated mouse RAW264.7 cells assessed as inhibition of NO production at 10 uM treated after 2 hrs of LPS addition measured after 19 hrs relative to control; values are per cent of control
[4] = test system: RAW264.7; assay: Antiinflammatory activity in IFN-gamma/LPS-stimulated mouse RAW264.7 cells assessed as inhibition of NO production at 50 uM treated after 2 hrs of LPS addition measured after 19 hrs relative to control; values are per cent of control
[5] = test system: RAW264.7; assay: Cytotoxicity against IFN-gamma/LPS-stimulated mouse RAW264.7 cells at 10 to 100 uM treated after 2 hrs of LPS addition measured after 19 hrs by MTT assay; format: cell-based; conditions: raw264.7, 19 h
[6] = test system: RAW264.7; assay: Antiinflammatory activity in IFN-gamma/LPS-stimulated mouse RAW264.7 cells assessed as inhibition of NO production at 30 uM treated after 18.5 hrs of LPS addition measured after 19 hrs relative to control; format: functional, cell-based
[7] = test system: RAW264.7; assay: Antiinflammatory activity in IFN-gamma/LPS-stimulated mouse RAW264.7 cells assessed as inhibition of NO production at 10 uM treated after 18.5 hrs of LPS addition measured after 19 hrs relative to control; format: functional, cell-based
[8] = test system: RAW264.7; assay: Cytotoxicity against IFN-gamma/LPS-stimulated mouse RAW264.7 cells at 10 to 100 uM treated after 3 hrs of IFN-gamma stimulation and before 30 mins of LPS addition measured after 19 hrs by MTT assay; format: cell-based; conditions: raw264.7, 19 h
[9] = test system: RAW264.7; assay: Antiinflammatory activity in IFN-gamma/LPS-stimulated mouse RAW264.7 cells assessed as inhibition of NO production at 50 uM treated before 30 mins of IFN-gamma stimulation in presence of LPS measured after 19 hrs relative to control; format: functional; conditions: values are per cent of control
[10] = test system: RAW264.7; assay: Antiinflammatory activity in IFN-gamma/LPS-stimulated mouse RAW264.7 cells assessed as NO production at 50 uM treated after 3 hrs of IFN-gamma stimulation and before 30 mins of LPS addition measured after 19 hrs relative to control
[11] = test system: RAW264.7; assay: Antiinflammatory activity in IFN-gamma/LPS-stimulated mouse RAW264.7 cells assessed as inhibition of NO production at 10 uM treated before 30 mins of IFN-gamma stimulation in presence of LPS measured after 19 hrs relative to control; format: functional; conditions: values are per cent of control
[12] = test system: RAW264.7; assay: Antiinflammatory activity in IFN-gamma/LPS-stimulated mouse RAW264.7 cells assessed as NO production at 100 uM treated after 3 hrs of IFN-gamma stimulation and before 30 mins of LPS addition measured after 19 hrs relative to control
[13] = test system: RAW264.7; assay: Antiinflammatory activity in IFN-gamma/LPS-stimulated mouse RAW264.7 cells assessed as inhibition of NO production at 100 uM treated after 2 hrs of LPS addition measured after 19 hrs relative to control; values are per cent of control
[14] = test system: RAW264.7; assay: Antiinflammatory activity in IFN-gamma/LPS-stimulated mouse RAW264.7 cells assessed as inhibition of NO production at 100 uM treated before 30 mins of IFN-gamma stimulation in presence of LPS measured after 19 hrs relative to control; format: functional; conditions: values are per cent of control
[15] = test system: RAW264.7; assay: Cytotoxicity against IFN-gamma/LPS-stimulated mouse RAW264.7 cells at 10 to 100 uM treated after 18.5 hrs of LPS addition measured after 19 hrs by MTT assay; format: cell-based; conditions: raw264.7, 19 h
[16] = test system: RAW264.7; assay: Antiinflammatory activity in IFN-gamma/LPS-stimulated mouse RAW264.7 cells assessed as inhibition of NO production at 30 uM treated after 3 hrs of IFN-gamma stimulation and before 30 mins of LPS addition measured after 19 hrs relative to control; format: functional, cell-based
[17] = test system: RAW264.7; assay: Antiinflammatory activity in IFN-gamma/LPS-stimulated mouse RAW264.7 cells assessed as inhibition of NO production at 100 uM treated after 3 hrs of IFN-gamma stimulation and before 30 mins of LPS addition measured after 19 hrs relative to control; format: functional
[18] = test system: RAW264.7; assay: Antiinflammatory activity in IFN-gamma/LPS-stimulated mouse RAW264.7 cells assessed as inhibition of NO production at 30 uM treated before 30 mins of IFN-gamma stimulation in presence of LPS measured after 19 hrs relative to control; format: functional
[19] = test system: RAW264.7; assay: Antiinflammatory activity in IFN-gamma/LPS-stimulated mouse RAW264.7 cells assessed as inhibition of NO production at 50 uM treated after 3 hrs of IFN-gamma stimulation and before 30 mins of LPS addition measured after 19 hrs relative to control; format: functional

SMILES	Activity [1]	level, % of control at 10 µM [2] [%]	NO level, % of control [3] [%]	NO level, % of control [4] [%]	Activity [5]	Activity [6]	Activity [7]	Activity [8]	response, % of control at 50 µM [9] [%]	level, % of control at 50 µM [10] [%]	response, % of control at 10 µM [11] [%]	level, % of control at 100 µM [12] [%]	NO level, % of control [13] [%]	response, % of control at 100 µM [14] [%]	Activity [15]	Activity [16]	Activity [17]	inhibition at 30 µM [18] [%]	Activity [19]
C[n+]1c2n(c(=O)c3ccccc31)CCc1c-2[nH]c2ccccc12 [DEHYDROEVODIAMINE]	inactive	86.1	84.3	77	Non-toxic	inactive	inactive	Not Active	74.2	78.1	80.6	23.2	24.2	44					
CN1c2ccccc2C(=O)N2CCc3c([nH]c4ccccc34)[C@H]21 [EVODIAMINE]					Non-toxic			Not Active							Non-toxic				
CN1c2ccccc2C(=O)N2CCc3c([nH]c4ccccc34)[C@@H]21 [EVODIAMINE]									68.3		79.5					inactive	inactive	50.6	inactive
